Assay [1] addresses Matrix metalloproteinase-9 (Homo sapiens, UniProt P14780). Put plainly: MMP-9 Activity Assay. Particulars: pH 7.4; 37 °C. As for the experimental part:
Recombinant human MMP-9 was expressed in Sf9 insect cells and purified by gelatin-Sepharose affinity chromatography as described previously16,17. It was activated with 0.01 μM of the catalytic domain of MMP-3 (cd-MMP-3, Calbiochem) in assay buffer (100 mM Tris/HCl, pH 7.4, 100 mM NaCl, 10 mM CaCl2 and 0.01% Tween-20) at 92 ng/μl (1 μM) as a stock solution as described8. Hydrolysis of the substrate Mca-Pro-Leu-Gly-Leu-Dpa-Ala-Arg-NH2 (substrate I, R&D Systems Europe Ltd) was monitored by measuring the increase in fluorescence (excitation wavelength = 328 nm, emission wavelength = 392 nm) [Whittaker et al., Chem. Rev., 99:2735-2776]. All assays were performed at 37°C in 100 μl assay buffer. The reaction was started by adding 10 μl gelatinase B stock solution (0.92 ng/μl) to a 100 μl reaction system with a substrate concentration of 10 μM, after which the rate of substrate hydrolysis was monitored.

For the next assay, the target named is Neutrophil collagenase (Homo sapiens, UniProt P22894). Put plainly: MMP-8 Activity Assay. The note with it: pH 7.4; 37 °C. As for the experimental part: Recombinant human MMP-8 was purchased as an active form enzyme (Sino Biological Inc.). The enzyme activity was detected with the same fluorogenic peptidesubstrate as that for MMP-9. All MMP-8 assays were performed at 37°C in 100 μl assay buffer with 20 μl recombinant human MMP-8 (2 ng/μl). The final substrateconcentration was 10 μM.

A further assay deals with Stromelysin-1 (Homo sapiens, UniProt P08254). Put plainly: MMP-3 Activity Assay. Particulars: pH 7.4; 37 °C. The method, then:
The activity of recombinant human MMP-3 (catalytic domain, Calbiochem) was detected with the substrate Mca-Arg-Pro-Lys-Pro-Val-Glu-Nval-Trp-Arg-Lys(Dnp)-NH2 (substrate II, R&D Systems Europe Ltd) (excitation wavelength = 320 nm, emission wavelength = 405 nm). These assays were performed at 37°C in 100 μl assay buffer. The reaction was started by adding 10 μl MMP-3 stock solution (1 ng/μl) to a 100 μl reaction system with a final substrate concentration of 10 μM, after which the rate of substrate hydrolysis was monitored.

Assay [2] deals with Disintegrin and metalloproteinase domain-containing protein 17 (Homo sapiens, UniProt P78536). Put plainly: TACE Activity Assay. Particulars: pH 9.0. The method, then:
TACE was purchased as an active form enzyme (R&D Systems). Hydrolysis of the TACE-substrate Mca-Pro-Leu-Ala-Gln-Ala-Val-Dpa-Arg-Ser-Ser-Ser-Arg-NH (substrateIII, R&D Systems Europe Ltd) was monitored by measuring the increase in fluorescence (excitation wavelength = 320 nm, emission wavelength = 405 nm). TACEassays were performed at 37°C in 100 μl assay buffer. The reaction was started by adding 4 μl TACE stock solution (1 ng/μl) to a 100 μl reaction system with a final substrate concentration of 10 μM, after which the rate of substrate hydrolysis was monitored.

Where a SMILES comes first, the peptide text is derived from it.

Sequence of Disintegrin and metalloproteinase domain-containing protein 17 (P78536 whole entry, the tested form may be a part): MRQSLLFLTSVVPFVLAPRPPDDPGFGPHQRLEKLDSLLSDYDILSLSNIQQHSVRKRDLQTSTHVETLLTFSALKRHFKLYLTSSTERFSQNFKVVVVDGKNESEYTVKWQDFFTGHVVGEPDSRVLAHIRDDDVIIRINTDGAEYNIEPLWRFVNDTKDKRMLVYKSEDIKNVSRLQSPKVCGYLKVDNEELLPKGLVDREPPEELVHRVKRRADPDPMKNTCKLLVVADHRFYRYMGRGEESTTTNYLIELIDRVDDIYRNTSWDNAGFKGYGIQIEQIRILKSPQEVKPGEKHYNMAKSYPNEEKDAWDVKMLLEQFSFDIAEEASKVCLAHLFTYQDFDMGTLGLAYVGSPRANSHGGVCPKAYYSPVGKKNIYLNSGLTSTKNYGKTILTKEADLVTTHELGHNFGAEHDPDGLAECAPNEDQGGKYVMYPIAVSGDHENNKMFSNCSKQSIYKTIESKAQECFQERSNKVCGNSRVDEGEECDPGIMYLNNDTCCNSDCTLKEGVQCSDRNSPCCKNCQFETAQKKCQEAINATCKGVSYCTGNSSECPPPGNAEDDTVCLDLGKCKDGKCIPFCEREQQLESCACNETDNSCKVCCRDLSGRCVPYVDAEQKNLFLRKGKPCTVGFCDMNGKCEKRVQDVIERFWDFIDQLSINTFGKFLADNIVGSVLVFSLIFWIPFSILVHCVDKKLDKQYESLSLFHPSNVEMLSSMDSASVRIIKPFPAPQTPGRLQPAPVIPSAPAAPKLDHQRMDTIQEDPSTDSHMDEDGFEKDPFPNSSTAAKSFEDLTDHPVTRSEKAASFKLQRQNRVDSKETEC
Sequence of Matrix metalloproteinase-9 (P14780 whole entry, the tested form may be a part): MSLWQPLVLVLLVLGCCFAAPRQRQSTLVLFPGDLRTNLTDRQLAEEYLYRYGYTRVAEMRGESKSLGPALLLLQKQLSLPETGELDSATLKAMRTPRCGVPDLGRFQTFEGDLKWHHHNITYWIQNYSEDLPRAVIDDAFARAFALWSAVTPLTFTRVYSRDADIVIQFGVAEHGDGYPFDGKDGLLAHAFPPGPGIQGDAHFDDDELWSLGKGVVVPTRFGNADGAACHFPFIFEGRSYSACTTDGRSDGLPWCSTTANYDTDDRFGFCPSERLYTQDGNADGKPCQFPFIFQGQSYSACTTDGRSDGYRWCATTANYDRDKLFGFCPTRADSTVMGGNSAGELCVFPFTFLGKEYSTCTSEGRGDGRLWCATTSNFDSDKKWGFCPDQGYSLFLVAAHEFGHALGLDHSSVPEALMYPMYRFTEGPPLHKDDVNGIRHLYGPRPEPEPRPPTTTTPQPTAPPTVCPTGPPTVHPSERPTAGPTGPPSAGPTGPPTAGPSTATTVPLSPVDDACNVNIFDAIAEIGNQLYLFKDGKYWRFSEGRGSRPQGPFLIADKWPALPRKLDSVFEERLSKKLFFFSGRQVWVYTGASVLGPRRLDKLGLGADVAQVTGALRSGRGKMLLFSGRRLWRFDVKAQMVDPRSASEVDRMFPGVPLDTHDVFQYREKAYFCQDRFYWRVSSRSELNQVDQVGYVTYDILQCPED
Sequence of Neutrophil collagenase (P22894 whole entry): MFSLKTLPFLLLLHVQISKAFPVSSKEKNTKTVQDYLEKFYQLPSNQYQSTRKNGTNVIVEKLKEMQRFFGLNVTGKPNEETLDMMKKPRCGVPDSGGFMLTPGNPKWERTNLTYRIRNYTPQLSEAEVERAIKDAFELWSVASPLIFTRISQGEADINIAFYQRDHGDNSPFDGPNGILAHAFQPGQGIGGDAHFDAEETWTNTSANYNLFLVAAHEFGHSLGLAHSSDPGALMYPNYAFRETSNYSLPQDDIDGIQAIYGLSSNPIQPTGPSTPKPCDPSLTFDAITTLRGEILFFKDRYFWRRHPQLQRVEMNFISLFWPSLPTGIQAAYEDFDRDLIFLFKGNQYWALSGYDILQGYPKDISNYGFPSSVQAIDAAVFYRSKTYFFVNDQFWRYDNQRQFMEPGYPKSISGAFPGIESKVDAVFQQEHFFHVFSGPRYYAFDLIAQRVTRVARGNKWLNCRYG
Sequence of Stromelysin-1 (P08254 whole entry, the tested form may be a part): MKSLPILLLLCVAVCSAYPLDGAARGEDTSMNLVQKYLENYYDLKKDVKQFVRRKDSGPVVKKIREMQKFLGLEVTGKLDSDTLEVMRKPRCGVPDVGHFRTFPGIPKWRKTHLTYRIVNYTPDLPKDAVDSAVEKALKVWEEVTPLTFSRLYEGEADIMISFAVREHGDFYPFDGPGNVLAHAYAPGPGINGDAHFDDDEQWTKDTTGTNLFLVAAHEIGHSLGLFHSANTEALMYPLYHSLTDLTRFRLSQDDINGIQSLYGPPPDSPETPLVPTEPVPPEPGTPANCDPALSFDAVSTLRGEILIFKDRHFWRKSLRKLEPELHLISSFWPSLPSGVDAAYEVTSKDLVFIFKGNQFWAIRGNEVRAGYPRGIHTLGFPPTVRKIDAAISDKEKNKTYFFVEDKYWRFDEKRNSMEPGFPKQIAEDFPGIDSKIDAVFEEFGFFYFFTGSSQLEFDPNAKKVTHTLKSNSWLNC

One may read the IC50 as the concentration that inhibits the measured activity by half. High values mean weaker potency, low ones greater potency. With `N=C(N)NCCC[C@H](N)C(=O)N[C@@H](CS)C(=O)N[C@H](Cc1ccc(-c2ccccc2)cc1)C(=O)N[C@H](CCCNC(=N)N)C(=O)O` [Arg-Cys-(D-Bip)-(D-Arg)] (HELM PEPTIDE1{R.C.[O=C([C@@H](Cc1ccc(-c2ccccc2)cc1)N[*:1])[*:2]].[dR]}$$$$V2.0), the IC50 in assay [1] turned out to be 750 nM; against Neutrophil collagenase it was 2300 nM; on Stromelysin-1, 19500 nM; in assay [2], 20000 nM.
On to `N=C(N)NCCC[C@H](NC(=O)[C@H](Cc1ccc(-c2ccccc2)cc1)NC(=O)[C@@H](CS)NC(=O)[C@@H](N)CCCNC(=N)N)C(=O)O` [Arg-(D-Cys)-Bip-Arg] (HELM PEPTIDE1{R.[dC].[O=C([C@H](Cc1ccc(-c2ccccc2)cc1)N[*:1])[*:2]].R}$$$$V2.0), for which the IC50 in assay [1] is 900 nM; on Neutrophil collagenase it was 900 nM; at Stromelysin-1 it was 22500 nM; in assay [2], 2500 nM.
